Legend:
[1] = in vivo; conditions: both, dog, serum, oral, 15 mg/kg BW
Description: (§1) Methodology: The study was designed to test the feeding of melatonin on the absorption of cephalexin. Dogs (n=24, Body Weight (BW) range: 7-14 kg, age range: 1.5 to 14 yrs) were divided into a test group and a control group. The respective groups were balanced for gender.
(§2) The test group received a single dose of melatonin (1 mg/kg BW) at 12:00 pm, followed by a single dose of cephalexin (15 mg/kg BW) between 1:00 and 2:00 pm. Dosing with melatonin and cephalexin were both by oral administration to the dogs. The study evaluated cephalexin absorption by determining the pharmacokinetics of cephalexin appearance in serum subsequent to the melatonin administration. […] Samples for pharmacokinetic analysis were taken at 15, 30, 45, and 60 min, as well as 1.5, 2, 2.5, 3, 3.5, 4, 6, and 8 hours after oral dosing of cephalexin. Cephalexin concentration was determined by high pressure liquid chromatograph. Serum melatonin content was analyzed before and after the oral administration time, e.g., at −5, −3, −1, −0.5 hour before, 0 (dosing time), and at 0.5, 1, 2, 3, 4, and 6 hours after oral dosing of melatonin. Melatonin was quantified by radioimmunoassay procedures.

[2] = in vivo; conditions: both, Labrador Retriever, dog, serum, oral, 15 mg/kg BW
Description: (§3) Methology: The study used n=40 Labrador Retriever dogs (BW range: 21-40 kg) to test the oral ingestion of melatonin compared to no-melatonin placebo control on the absorption of cephalexin, an antibiotic that also serves as a marker substrate for small peptides. The dogs were balanced for gender and the ages ranged from 1.5 to 9 years old. The study evaluated cephalexin absorption by orally administering a single 15 mg/kg BW dose of cephalexin to dogs at 2:00 pm, and subsequently determining the pharmakinetics of cephalexin appearance in serum. Dogs were randomized into 5 different treatment groups and received a single oral dose of melatonin (0.01, 0.1, 1, or 3 mg/kg BW) in a gelatin capsule or placebo simultaneously as the cephalexin dose. The oral dose was immediately followed by an oral administration of 60 mL of water by a 60 mL irrigation syringe. The melatonin dose diluent and placebo pill were the inert carrier, avicel. Cephalexin pharmakinetics were analyzed at 30 and 60 min after dosing and 1.5, 2, 2.5, 3, 4, and 6 hours after oral dosing of cephalexin. Cephalexin concentration was determined by high pressure liquid chromatograph.

[3] = Serum melatonin pharmacokinetics after oral melatonin, radioimmunoassay (Example 1); type: in vivo, Dogs
Excerpt: Melatonin was quantified by radioimmunoassay procedures.

[4] = Day/night activity, Actiwatch monitor, 24 h before and 48 h after oral melatonin (Example 2); type: in vivo, Labrador Retriever dogs; conditions: for Activity (Actiwatch): start of day 2
Description: Dogs were fitted with an Actiwatch monitor 24 hours before oral ingestion of one of the melatonin doses, specifically at 2 PM on day 1. Following the oral administration of melatonin, the activity monitoring continued for another 48 hours, at which time the monitors were removed and the data collected for analysis. The dogs were exposed to 11.5 h light:12.5 h dark cycle, in which kennel lighting and natural light was combined over the 11.5 hour period. In the morning the light cycle began with exposure to kennel lighting at 6 AM and darkness onset occurred at 5:30 PM with sunset. For data analysis, activity was separated into three periods of time, afternoon light phase (2 PM to 5:30 PM, 3.5 h duration), dark phase (5:30 PM to 6 AM, 12.5 h duration), and morning light phase (6 AM to 2 PM, 8 h duration). For data analysis purposes, a 24 hour period is from 2:00 PM to 1:59 PM.

[5] = melatonin 1 mg/kg BW oral before cephalexin 15 mg/kg BW oral
Description: as §1, §2

[6] = both, Labrador Retriever, dog, in vivo, po, 3 mg/kg
Description: as §3

[7] = Titration of oral melatonin dose on cephalexin absorption: serum pharmacokinetics of cephalexin (Example 2)
Description: as §3

**Q.** What does the source list for `CC1=C(C(=O)O)N2C(=O)[C@@H](NC(=O)[C@H](N)c3ccccc3)[C@H]2SC1` [Cephalexin, cephalexin]?
**A.** concentration at 0.25 h [1]: 790 ng/mL; concentration at 0.5 h [1]: 4170 ng/mL; concentration at 0.75 h [1]: 8190 ng/mL; concentration at 1 h [1]: 10900 ng/mL; concentration at 1.5 h [1]: 13900 ng/mL; concentration at 2 h [1]: 13700 ng/mL; concentration at 2.5 h [1]: 14300 ng/mL; concentration at 3 h [1]: 13000 ng/mL; concentration at 3.5 h [1]: 11800 ng/mL; concentration at 4 h [1]: 9900 ng/mL; concentration at 6 h [1]: 5910 ng/mL; concentration at 8 h [1]: 3730 ng/mL; concentration at 0.5 h [2]: 2010 ng/mL; concentration at 1 h [2]: 6280 ng/mL; concentration at 1.5 h [2]: 9920 ng/mL; concentration at 2 h [2]: 11800 ng/mL; concentration at 2.5 h [2]: 12400 ng/mL; concentration at 3 h [2]: 12200 ng/mL; concentration at 4 h [2]: 11300 ng/mL; concentration at 6 h [2]: 7570 ng/mL

**Q.** Which concentration at 1 h ([3]; dog, serum, melatonin 1 mg/kg BW oral at 12:00 pm, sample 1:00 pm) does the source give for `COc1ccc2[nH]cc(CCNC(C)=O)c2c1` [Melatonin, 5-methoxy-N-acetyltryptamine] here?
**A.** 9.55 ng/mL

**Q.** What about the concentration at 1.5 h ([3]; dog, serum, melatonin 1 mg/kg BW oral at 12:00 pm, sample 1:30 pm) of the same molecule?
**A.** 8.97 ng/mL

**Q.** And the concentration at 2 h ([3]; dog, serum, melatonin 1 mg/kg BW oral at 12:00 pm, sample 2:00 pm)?
**A.** 4.79 ng/mL

**Q.** What about the concentration at 3 h ([3]; dog, serum, melatonin 1 mg/kg BW oral at 12:00 pm, sample 3:00 pm) of the same molecule?
**A.** 1.46 ng/mL

**Q.** What about the concentration at 4 h ([3]; dog, serum, melatonin 1 mg/kg BW oral at 12:00 pm, sample 4:00 pm) of the same molecule?
**A.** 0.747 ng/mL

**Q.** What about the concentration at 5 h ([3]; dog, serum, melatonin 1 mg/kg BW oral at 12:00 pm, sample 5:00 pm) of the same molecule?
**A.** 0.273 ng/mL

**Q.** What about the concentration at 7 h ([3]; dog, serum, melatonin 1 mg/kg BW oral at 12:00 pm, sample 7:00 pm) of the same molecule?
**A.** 0.0885 ng/mL

**Q.** What about the concentration at -3 h ([3]; dog, serum, melatonin 1 mg/kg BW oral at 12:00 pm, sample 9:00 am (before dosing)) of the same molecule?
**A.** 0.0039 ng/mL

**Q.** And the concentration at -1 h ([3]; dog, serum, melatonin 1 mg/kg BW oral at 12:00 pm, sample 11:00 am (before dosing))?
**A.** 0.0005 ng/mL

**Q.** What about the concentration at 0 h ([3]; dog, serum, melatonin 1 mg/kg BW oral at 12:00 pm, sample 12:00 pm (dosing time)) of the same molecule?
**A.** 0.0184 ng/mL

**Q.** And the concentration at 0.5 h ([3]; dog, serum, melatonin 1 mg/kg BW oral at 12:00 pm, sample 12:30 pm)?
**A.** 10.7 ng/mL

**Q.** What about the “Melatonin appearance in serum” value ([3]; dogs that ingested melatonin 1 mg/kg BW, versus baseline levels of control dogs) of the same molecule?
**A.** increased significantly for up to 6 hours after ingestion

**Q.** What about the “Activity (Actiwatch)” value ([4]; melatonin 0.01 mg/kg BW oral at 2 PM, Afternoon Light Phase (2 PM-5:30 PM), Day 1 (before dosing)) of the same molecule?
**A.** 30064

**Q.** And the “Activity (Actiwatch)” value ([4]; melatonin 0.01 mg/kg BW oral at 2 PM, Afternoon Light Phase (2 PM-5:30 PM), Day 2)?
**A.** 44935

**Q.** And the “Activity (Actiwatch)” value ([4]; melatonin 0.01 mg/kg BW oral at 2 PM, Afternoon Light Phase (2 PM-5:30 PM), Day 3)?
**A.** 39386

**Q.** And the “Activity (Actiwatch)” value ([4]; melatonin 0.01 mg/kg BW oral at 2 PM, Dark Phase (5:30 PM-6 AM), Day 1 (before dosing))?
**A.** 32346

**Q.** And the “Activity (Actiwatch)” value ([4]; melatonin 0.01 mg/kg BW oral at 2 PM, Dark Phase (5:30 PM-6 AM), Day 2)?
**A.** 30930

**Q.** And the “Activity (Actiwatch)” value ([4]; melatonin 0.01 mg/kg BW oral at 2 PM, Dark Phase (5:30 PM-6 AM), Day 3)?
**A.** 34140

**Q.** And the “Activity (Actiwatch)” value ([4]; melatonin 0.01 mg/kg BW oral at 2 PM, Morning Light Phase (6 AM-2 PM), Day 1 (before dosing))?
**A.** 140160

**Q.** And the “Activity (Actiwatch)” value ([4]; melatonin 0.01 mg/kg BW oral at 2 PM, Morning Light Phase (6 AM-2 PM), Day 2)?
**A.** 128216

**Q.** What about the “Activity (Actiwatch)” value ([4]; melatonin 0.01 mg/kg BW oral at 2 PM, Morning Light Phase (6 AM-2 PM), Day 3) of the same molecule?
**A.** 120706

**Q.** What about the “Activity (Actiwatch)” value ([4]; melatonin 0.1 mg/kg BW oral at 2 PM, Afternoon Light Phase (2 PM-5:30 PM), Day 1 (before dosing)) of the same molecule?
**A.** 28140

**Q.** And the “Activity (Actiwatch)” value ([4]; melatonin 0.1 mg/kg BW oral at 2 PM, Afternoon Light Phase (2 PM-5:30 PM), Day 2)?
**A.** 30124

**Q.** What about the “Activity (Actiwatch)” value ([4]; melatonin 0.1 mg/kg BW oral at 2 PM, Afternoon Light Phase (2 PM-5:30 PM), Day 3) of the same molecule?
**A.** 21497

**Q.** And the “Activity (Actiwatch)” value ([4]; melatonin 0.1 mg/kg BW oral at 2 PM, Dark Phase (5:30 PM-6 AM), Day 1 (before dosing))?
**A.** 38464

**Q.** What about the “Activity (Actiwatch)” value ([4]; melatonin 0.1 mg/kg BW oral at 2 PM, Dark Phase (5:30 PM-6 AM), Day 2) of the same molecule?
**A.** 30753

**Q.** And the “Activity (Actiwatch)” value ([4]; melatonin 0.1 mg/kg BW oral at 2 PM, Dark Phase (5:30 PM-6 AM), Day 3)?
**A.** 32849

**Q.** And the “Activity (Actiwatch)” value ([4]; melatonin 0.1 mg/kg BW oral at 2 PM, Morning Light Phase (6 AM-2 PM), Day 1 (before dosing))?
**A.** 133337

**Q.** What about the “Activity (Actiwatch)” value ([4]; melatonin 0.1 mg/kg BW oral at 2 PM, Morning Light Phase (6 AM-2 PM), Day 2) of the same molecule?
**A.** 130972

**Q.** And the “Activity (Actiwatch)” value ([4]; melatonin 0.1 mg/kg BW oral at 2 PM, Morning Light Phase (6 AM-2 PM), Day 3)?
**A.** 99800

**Q.** What about the “Activity (Actiwatch)” value ([4]; melatonin 1 mg/kg BW oral at 2 PM, Afternoon Light Phase (2 PM-5:30 PM), Day 1 (before dosing)) of the same molecule?
**A.** 34376

**Q.** What about the “Activity (Actiwatch)” value ([4]; melatonin 1 mg/kg BW oral at 2 PM, Afternoon Light Phase (2 PM-5:30 PM), Day 2) of the same molecule?
**A.** 44889

**Q.** What about the “Activity (Actiwatch)” value ([4]; melatonin 1 mg/kg BW oral at 2 PM, Afternoon Light Phase (2 PM-5:30 PM), Day 3) of the same molecule?
**A.** 31184

**Q.** What about the “Activity (Actiwatch)” value ([4]; melatonin 1 mg/kg BW oral at 2 PM, Dark Phase (5:30 PM-6 AM), Day 1 (before dosing)) of the same molecule?
**A.** 47178

**Q.** And the “Activity (Actiwatch)” value ([4]; melatonin 1 mg/kg BW oral at 2 PM, Dark Phase (5:30 PM-6 AM), Day 2)?
**A.** 26733

**Q.** And the “Activity (Actiwatch)” value ([4]; melatonin 1 mg/kg BW oral at 2 PM, Dark Phase (5:30 PM-6 AM), Day 3)?
**A.** 49958

**Q.** What about the “Activity (Actiwatch)” value ([4]; melatonin 1 mg/kg BW oral at 2 PM, Morning Light Phase (6 AM-2 PM), Day 1 (before dosing)) of the same molecule?
**A.** 155482

**Q.** And the “Activity (Actiwatch)” value ([4]; melatonin 1 mg/kg BW oral at 2 PM, Morning Light Phase (6 AM-2 PM), Day 2)?
**A.** 151573

**Q.** And the “Activity (Actiwatch)” value ([4]; melatonin 1 mg/kg BW oral at 2 PM, Morning Light Phase (6 AM-2 PM), Day 3)?
**A.** 126103

**Q.** And the “Activity (Actiwatch)” value ([4]; melatonin 3 mg/kg BW oral at 2 PM, Afternoon Light Phase (2 PM-5:30 PM), Day 1 (before dosing))?
**A.** 30548

**Q.** What about the “Activity (Actiwatch)” value ([4]; melatonin 3 mg/kg BW oral at 2 PM, Afternoon Light Phase (2 PM-5:30 PM), Day 2) of the same molecule?
**A.** 45730

**Q.** What about the “Activity (Actiwatch)” value ([4]; melatonin 3 mg/kg BW oral at 2 PM, Afternoon Light Phase (2 PM-5:30 PM), Day 3) of the same molecule?
**A.** 35034

**Q.** What about the “Activity (Actiwatch)” value ([4]; melatonin 3 mg/kg BW oral at 2 PM, Dark Phase (5:30 PM-6 AM), Day 1 (before dosing)) of the same molecule?
**A.** 33517

**Q.** What about the “Activity (Actiwatch)” value ([4]; melatonin 3 mg/kg BW oral at 2 PM, Dark Phase (5:30 PM-6 AM), Day 2) of the same molecule?
**A.** 35926

**Q.** What about the “Activity (Actiwatch)” value ([4]; melatonin 3 mg/kg BW oral at 2 PM, Dark Phase (5:30 PM-6 AM), Day 3) of the same molecule?
**A.** 33492

**Q.** And the “Activity (Actiwatch)” value ([4]; melatonin 3 mg/kg BW oral at 2 PM, Morning Light Phase (6 AM-2 PM), Day 1 (before dosing))?
**A.** 139265

**Q.** What about the “Activity (Actiwatch)” value ([4]; melatonin 3 mg/kg BW oral at 2 PM, Morning Light Phase (6 AM-2 PM), Day 2) of the same molecule?
**A.** 153805

**Q.** What about the “Activity (Actiwatch)” value ([4]; melatonin 3 mg/kg BW oral at 2 PM, Morning Light Phase (6 AM-2 PM), Day 3) of the same molecule?
**A.** 117374

**Q.** And the “Activity during the dark phase immediately following oral ingestion, compared to placebo” value ([4]; melatonin 0.01, 0.1, and 1 mg/kg groups)?
**A.** decrease compared to the placebo groups

**Q.** What about the “Influence on activity, late afternoon light phase (2 pm to 5:30 pm)” value ([4]; oral melatonin 0.01, 0.1, 1, and 3 mg/kg BW) of the same molecule?
**A.** did not demonstrate any influence of oral melatonin on activity

**Q.** What about the “Impact on activity in the daylight hours” value ([4]; oral melatonin 0.01-3 mg/kg BW) of the same molecule?
**A.** does not seem to impact activity of dogs in the daylight hours

**Q.** And the Nighttime activity ([4]; oral melatonin administered in the afternoon)?
**A.** nighttime activity is slightly reduced

**Q.** What about the “Effect of oral melatonin on absorption of cephalexin” value [5] of the same molecule?
**A.** increased the absorption of cephalexin

**Q.** And the “Cephalexin AUC greater than placebo group” value [6]?
**A.** 45-34

**Q.** And the “Amount of cephalexin appearing in the blood compared to the placebo group” value ([7]; melatonin 0.01 mg/kg BW oral)?
**A.** slightly decreased

**Q.** And the “Effect on absorption of cephalexin compared to placebo dogs” value ([7]; melatonin 0.1, 1, and 3 mg/kg BW oral)?
**A.** an increase in the absorption of cephalexin
